Experiments:
hERG = hERG (Homo sapiens, UniProt Q12809); test: Inhibition of hERG channel by rubidium efflux assay at 5 ug/ml; format: toxicity
[1] = molecular target: Voltage-gated inwardly rectifying potassium channel KCNH2 (Homo sapiens, UniProt Q12809); test: Inhibition of hERG channel by voltage clamp assay; format: toxicity
[2] = molecular target: Melanin-concentrating hormone receptor 1 (Homo sapiens, UniProt Q99705); test: Binding affinity to MCHR1
[3] = AUC (0-6h) in rat at 10 mg/kg, po; format: ADME, organism-based; parameters: time < 6 hr, dose 10 mg/kg, route oral; conditions: plasma

Melanin-concentrating hormone receptor 1, sequence (Q99705 whole entry): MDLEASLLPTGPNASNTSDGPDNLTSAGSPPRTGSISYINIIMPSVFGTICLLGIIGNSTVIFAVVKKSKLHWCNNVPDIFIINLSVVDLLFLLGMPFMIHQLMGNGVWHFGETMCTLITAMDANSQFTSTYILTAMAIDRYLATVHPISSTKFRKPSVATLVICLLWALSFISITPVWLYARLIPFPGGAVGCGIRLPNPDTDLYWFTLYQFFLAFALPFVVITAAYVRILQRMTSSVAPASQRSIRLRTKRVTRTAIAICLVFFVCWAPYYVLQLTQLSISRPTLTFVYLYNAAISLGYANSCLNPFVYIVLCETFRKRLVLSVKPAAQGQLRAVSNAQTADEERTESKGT
hERG, sequence (Q12809 whole entry): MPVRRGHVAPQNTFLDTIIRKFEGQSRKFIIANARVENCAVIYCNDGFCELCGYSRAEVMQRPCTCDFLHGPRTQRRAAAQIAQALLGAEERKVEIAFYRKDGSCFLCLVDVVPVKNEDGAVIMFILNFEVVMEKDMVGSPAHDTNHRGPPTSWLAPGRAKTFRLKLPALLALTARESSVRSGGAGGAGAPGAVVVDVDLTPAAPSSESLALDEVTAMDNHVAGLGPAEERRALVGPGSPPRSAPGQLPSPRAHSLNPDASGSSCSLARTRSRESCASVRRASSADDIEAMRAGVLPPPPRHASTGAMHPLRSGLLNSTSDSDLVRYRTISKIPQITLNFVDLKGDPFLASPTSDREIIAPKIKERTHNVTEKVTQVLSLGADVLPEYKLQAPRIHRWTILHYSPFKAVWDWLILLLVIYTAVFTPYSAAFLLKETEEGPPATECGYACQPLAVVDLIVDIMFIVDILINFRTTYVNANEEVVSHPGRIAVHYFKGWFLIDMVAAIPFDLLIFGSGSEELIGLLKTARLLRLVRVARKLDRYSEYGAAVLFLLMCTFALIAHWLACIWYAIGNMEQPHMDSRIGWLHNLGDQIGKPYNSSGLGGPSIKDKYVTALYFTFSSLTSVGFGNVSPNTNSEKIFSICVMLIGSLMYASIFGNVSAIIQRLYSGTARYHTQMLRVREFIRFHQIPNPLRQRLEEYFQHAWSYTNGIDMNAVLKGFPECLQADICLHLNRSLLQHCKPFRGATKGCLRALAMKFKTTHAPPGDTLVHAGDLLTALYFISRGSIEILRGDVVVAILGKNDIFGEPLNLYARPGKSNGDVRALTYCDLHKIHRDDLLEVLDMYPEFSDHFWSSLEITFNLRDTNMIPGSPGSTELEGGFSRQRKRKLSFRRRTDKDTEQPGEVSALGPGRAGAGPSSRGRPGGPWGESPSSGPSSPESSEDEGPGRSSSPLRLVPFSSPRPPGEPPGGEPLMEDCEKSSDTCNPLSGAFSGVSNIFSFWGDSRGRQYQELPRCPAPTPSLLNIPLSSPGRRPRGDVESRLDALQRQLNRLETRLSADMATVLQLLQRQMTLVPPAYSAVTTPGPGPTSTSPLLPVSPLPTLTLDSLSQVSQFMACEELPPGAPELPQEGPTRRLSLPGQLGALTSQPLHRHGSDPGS
Voltage-gated inwardly rectifying potassium channel KCNH2, sequence (Q12809 whole entry): as above

Row | SMILES | inhibition at 5 ug/ml (hERG) | IC50 [1] | Ki [2] | AUC(0-t) at 6 h [3]
1 | CN1CCN(CCCN(C(=O)Nc2ccc(F)c(C(F)(F)F)c2)[C@@H]2CC[C@]3(c4ccc(C#N)cc4)C[C@H]23)CC1 | 86% | 52 nM | – | –
2 | CN1CCN(CCCN(C(=O)Nc2ccc(F)c(C(F)(F)F)c2)[C@@H]2CC[C@]3(c4ccc5c(N)noc5c4)C[C@H]23)CC1 | 26% | 690 nM | – | –
3 | COc1cccc([C@]23CC[C@@H](N(CCCN4CCN(C)CC4)C(=O)Nc4ccc(F)c(Cl)c4)[C@H]2C3)c1 | 70% | – | 2.7 nM | –
4 | CN1CCN(CCCN(C(=O)Nc2ccc(F)c(C(F)(F)F)c2)[C@@H]2CC[C@]3(c4ccc(=O)[nH]c4)C[C@H]23)CC1 | 9% | – | – | –
5 | CC(=O)Nc1ccc([C@]23CC[C@@H](N(CCCN4CCN(C)CC4)C(=O)Nc4ccc(F)c(Cl)c4)[C@H]2C3)cc1 | 18% | – | – | –
6 | CNC(=O)c1ccc([C@]23CC[C@@H](N(CCCN4CCN(C)CC4)C(=O)Nc4ccc(F)c(C(F)(F)F)c4)[C@H]2C3)cc1 | 25% | – | – | –
7 | CN1CCN(CCCN(C(=O)Nc2ccc(F)c(Cl)c2)[C@@H]2CC[C@]3(c4cccc(N5CCCC5=O)c4)C[C@H]23)CC1 | 14% | – | – | –
8 | CN1CCN(CCCN(C(=O)Nc2ccc(F)c(Cl)c2)[C@@H]2CC[C@]3(c4cccc(NC(=O)C5CC5)c4)C[C@H]23)CC1 | 46% | – | 6.8 nM | 634 ng·h/mL
9 | CN1CCN(CCCN(C(=O)Nc2ccc(F)c(Cl)c2)[C@@H]2CC[C@]3(c4ccc(N)cc4)C[C@H]23)CC1 | 16% | – | 4.4 nM | –
10 | CCC(=O)Nc1cccc([C@]23CC[C@@H](N(CCCN4CCN(C)CC4)C(=O)Nc4ccc(F)c(Cl)c4)[C@H]2C3)c1 | 34% | – | – | –
11 | CN1CCN(CCCN(C(=O)Nc2ccc(F)c(C(F)(F)F)c2)[C@@H]2CC[C@]3(c4ccc5c(c4)CC(=O)N5)C[C@H]23)CC1 | 50% | – | 15 nM | –
12 | CC(C)C(=O)Nc1cccc([C@]23CC[C@@H](N(CCCN4CCN(C)CC4)C(=O)Nc4ccc(F)c(Cl)c4)[C@H]2C3)c1 | 37% | – | 15.1 nM | 339 ng·h/mL
13 | CN1CCN(CCCN(C(=O)Nc2ccc(F)c(Cl)c2)[C@@H]2CC[C@]3(c4ccc(NC(=O)OC(C)(C)C)cc4)C[C@H]23)CC1 | 87% | – | – | –
14 | CCNC(=O)Nc1cccc([C@]23CC[C@@H](N(CCCN4CCN(C)CC4)C(=O)Nc4ccc(F)c(Cl)c4)[C@H]2C3)c1 | 17% | – | 28 nM | 127 ng·h/mL
15 | CN1CCN(CCCN(C(=O)Nc2ccc(F)c(Cl)c2)[C@@H]2CC[C@]3(c4cccc(N5CCC5)c4)C[C@H]23)CC1 | 29% | – | – | –
16 | COc1ccc([C@]23CC[C@@H](N(CCCN4CCN(C)CC4)C(=O)Nc4ccc(F)c(C(F)(F)F)c4)[C@H]2C3)cn1 | 36% | – | – | –
17 | CN1CCN(CCCN(C(=O)Nc2ccc(F)c(C(F)(F)F)c2)[C@@H]2CC[C@]3(c4ccc5onc(N)c5c4)C[C@H]23)CC1 | 46% | – | 46 nM | –
18 | CN1CCN(CCCN(C(=O)Nc2ccc(F)c(Cl)c2)[C@@H]2CC[C@]3(c4ccc(F)cc4)C[C@H]23)CC1 | 87% | – | – | –
19 | CN1CCN(CCCN(C(=O)Nc2ccc(F)c(C(F)(F)F)c2)[C@@H]2CC[C@]3(c4ccc(S(C)(=O)=O)cc4)C[C@H]23)CC1 | 46% | – | – | –
20 | CN1CCN(CCCN(C(=O)Nc2ccc(F)c(Cl)c2)[C@@H]2CC[C@]3(c4ccccc4)C[C@H]23)CC1 | 58% | – | – | –
21 | CN1CCN(CCCN(C(=O)Nc2ccc(F)c(Cl)c2)[C@@H]2CC[C@]3(c4cccc(N)c4)C[C@H]23)CC1 | 25% | – | 9.6 nM | –
22 | CC(=O)Nc1cccc([C@]23CC[C@@H](N(CCCN4CCN(C)CC4)C(=O)Nc4ccc(F)c(Cl)c4)[C@H]2C3)c1 | 19% | – | – | –
23 | CN1CCN(CCCN(C(=O)Nc2ccc(F)c(C(F)(F)F)c2)[C@@H]2CC[C@]3(c4nccs4)C[C@H]23)CC1 | 27% | – | – | –
24 | CN1CCN(CCCN(C(=O)Nc2ccc(F)c(C(F)(F)F)c2)[C@@H]2CC[C@]3(c4ccsc4)C[C@H]23)CC1 | 75% | – | – | –
25 | CN1CCN(CCCN(C(=O)Nc2ccc(F)c(Cl)c2)[C@@H]2CC[C@]3(c4cccnc4)C[C@H]23)CC1 | 97% | – | – | –
26 | CN1CCN(CCCN(C(=O)Nc2ccc(F)c(Cl)c2)[C@@H]2CC[C@]3(c4cccc(NC(=O)C(C)(C)C)c4)C[C@H]23)CC1 | 27% | – | – | –
27 | COC(=O)c1ccc([C@]23CC[C@@H](N(CCCN4CCN(C)CC4)C(=O)Nc4ccc(F)c(C(F)(F)F)c4)[C@H]2C3)cc1 (single isomer, unassigned) | 63% | – | – | –
